From patent US6734188B1, “Composition for treatment of constipation and irritable bowel syndrome” (priority 1999, dated 2004)

Key:
[1] = in vivo; cited from earlier work
[2] = test system: healthy, non-smoking volunteers; assay: Gut transit time study with radio opaque markers, oral naloxone with or without oral codeine (Example 1); format: in vivo, human; conditions: for Gut transit time, Maximum / Gut transit time, Mean / Gut transit time, Median / Gut transit time, Minimum: codeine 30 mg bd
Procedure: The study consisted of four 10-day study periods, with at least two weeks between each, which were in a randomised order and the capsules being administered daily in a double blind manner. […] The capsules were administered twice a day (“bd”).
The study protocol was as follows: On day 0, subjects were given capsule B and on days 1 to 9, were given capsules A and B. On days 3 to 6, the subjects took transit markers; packaged in distinctly coloured capsules, each containing 20 different shaped radio opaque marker pellets (Dunn Clinical Nutrition). From day 7, the subjects' next two bowel motions were collected. A normal diet was adhered to throughout the study period and recorded on days 3 to 6.

[3] = test system: patient with Irritable Bowel Syndrome; conditions: administered intermittently, similar dosage form to Example 3
[4] = test system: patients with advanced cancer; conditions: patients with advanced cancer treated with an opioid analgesic; cited from earlier work
male volunteers = assay: Gut transit time study, fixed doses of naloxone with or without codeine (Example 2); format: in vivo, human; conditions: naloxone 5, 10 and 20 mg bd, Gelucire 53/10:42/12 95:5, Eudragit LS coated; with 30 mg bd codeine in second week
Procedure: In a further study, the procedure of Example 1 was substantially followed using Gelucire™ 53/10 & Gelucire™ 42/12 95:5 as the polyglycolised glyceride matrix.
The gut transit time was measured at the end of the first week. During the second week, each volunteer was also given 30 mg bd codeine and gut transit times measured again at the end of the second week.

[5] = after parenteral administration; cited from earlier work
[6] = 8 patients whose transit time was increased by codeine (n = 8), naloxone 10 mg bd
[7] = all patients (n = 12), oral capsules twice a day, naloxone 10 mg bd
[8] = all patients (n = 12), oral capsules twice a day, naloxone 10 mg bd (Gelucire 50/13:42/12 82.5:17.5, enteric coated)

Row | Structure (SMILES) | Crossing of the blood-brain barrier [1] | Gut transit time, Maximum [2, 6] | Gut transit time, Mean [2, 6] | Gut transit time, Median [2, 6] | Gut transit time, Minimum [2, 6] | Gut transit time, Maximum [2, 7] | Gut transit time, Mean [2, 7] | Gut transit time, Median [2, 7] | Gut transit time, Minimum [2, 8] | Effect on gut transit time (in words) ([2]; Example 1, naloxone 10 mg bd alone or with codeine 30 mg bd) | Clinical outcome in irritable bowel syndrome [3] | Laxative effect [4] | Effect on gut transit time (in words) (male volunteers) | Plasma half-life [5]
1 | C[N@+]1(CC2CC2)CC[C@]23c4c5ccc(O)c4O[C@H]2C(=O)CC[C@@]3(O)[C@H]1C5 [methylnaltrexone] | do not cross the blood-brain barrier to a significant extent | – | – | – | – | – | – | – | – | – | – | – | – | –
2 | COc1ccc2c3c1O[C@H]1[C@@H](O)C=C[C@H]4[C@@H](C2)N(C)CC[C@@]341 [Codeine, codeine phosphate] | – | 84.00 h | 66.17 h | 67.85 h | 50.42 h | 84.00 h | 57.27 h | 56.76 h | 25.22 h | – | – | – | – | –
3 | C=CCN1CC[C@]23c4c5ccc(O)c4O[C@H]2C(=O)CC[C@@]3(O)[C@H]1C5 [Naloxone, 17-allyl-6-deoxy-7,8-dihydro-14-hydroxy-6-oxonormorphine] | – | 63.91 h | 41.41 h | 37.95 h | 27.40 h | 63.91 h | 42.13 h | 38.85 h | 27.40 h | reduced gut transit time | substantial clinical benefit | produce a laxative effect | accelerate gut transit time | about 1 h
